System: Saccharomyces cerevisiae wild type strain BY4743
Experiment: AF1 metabolite analysis (GC-MS, LC-MS) of yeast treated with antifungal drugs
Type: cell-based
Settings: for # Compounds perturbed: yeast, 2×MIC, two hours

## C[C@@H]1[C@H](O)[C@@H](C)/C=C/C=C/C=C/C=C/C=C/C=C/C=C/[C@H](O[C@@H]2O[C@H](C)[C@@H](O)[C@H](N)[C@@H]2O)C[C@@H]2O[C@](O)(C[C@@H](O)C[C@@H](O)[C@H](O)CC[C@@H](O)C[C@@H](O)CC(=O)O[C@H]1C)C[C@H](O)[C@H]2C(=O)O [Amphoteracin B]
GC
  Fold Change of TMS mevalonic acid lactone: −0.9767
  Fold Change of alanine: −0.7773
  Fold Change of asparagine: −1
  Fold Change of aspartic acid: −0.9743
  Fold Change of campesterol: 0
  Fold Change of desmosterol: 0
  Fold Change of disaccaride1: −1
  Fold Change of disaccaride2: −0.9977
  Fold Change of disaccaride3: −0.9977
  Fold Change of ergosterol: 2.303
  Fold Change of fucosterol: −0.6553
  Fold Change of glutamine: −0.9116
  Fold Change of glycanopyrose: −0.958
  Fold Change of glycerol: −0.815
  Fold Change of glycine: 0.8807
  Fold Change of hexadecanoic acid: −0.2427
  Fold Change of iso citric acid: −0.6183
  Fold Change of isoleucine: −0.9533
  Fold Change of lanosterol: −1
  Fold Change of leucine: −0.9443
  Fold Change of lysine: −0.3925
  Fold Change of malic acid: −0.963
  Fold Change of mevalonic acid lactone: −0.1276
  Fold Change of octadecanoic acid: 0.21
  Fold Change of oleic acid: −0.4593
  Fold Change of ornithine2: −1
  Fold Change of ornithine3: −0.9853
  Fold Change of palmiteliadic acid: 0.515
  Fold Change of phenylalanine: −0.9797
  Fold Change of phosphate: −0.007333
  Fold Change of pyrimidine: −0.185
  Fold Change of squalene: −0.5745
  Fold Change of tetradecanoic acid: 0.07967
  Fold Change of threonine2: −0.8553
  Fold Change of threonine3: −0.8933
  Fold Change of tms glutamine3: −0.8935
  Fold Change of tms lysine4: −0.9783
  Fold Change of tms tyrosine2: −0.3593
  Fold Change of tms tyrosine3: −0.9473
  Fold Change of valine: −0.8673
LC
  Fold Change of abscisic acid: 0
  Fold Change of adenosine: 0
  Fold Change of glutamine/lysine: 0.3981
  Fold Change of guanosine: 0.7598
  Fold Change of riboflavin: 0
  Fold Change of serine: 0.2011
  Fold Change of tyrosine: 0.2347
P < 0.05
  # Compounds perturbed: 16
P < 0.1
  # Compounds perturbed: 21
nLC
  Fold Change of 2-ketobutyric acid: −0.9992
  Fold Change of 2-ketoglutaric: 8.791
  Fold Change of 3-indolylacetonitri: −0.9998
  Fold Change of 4-methylcatechol: 0
  Fold Change of 4aminobutyrate/dimg: −0.1983
  Fold Change of 5hydroxyLtryptophan: 0
  Fold Change of 6-benzylaminopurine: 0
  Fold Change of DLaminoadipic acid: 1.411
  Fold Change of NacetylDglucosamine: 0
  Fold Change of NacetylLglutamate: −0.1078
  Fold Change of NacetylLornithine: 0
  Fold Change of abscisic acid: 0
  Fold Change of aconitic acid: 0.5426
  Fold Change of adenine: 0
  Fold Change of adenosine: 0
  Fold Change of alanine: 0.1599
  Fold Change of allantoic acid: −0.1456
  Fold Change of allantoin: 3.97
  Fold Change of anthranilic acid: 0
  Fold Change of arginine: −0.4885
  Fold Change of argininosuccinate: 0
  Fold Change of asparagine: 0.1511
  Fold Change of aspartic: 0.2407
  Fold Change of benzoic acid: 0
  Fold Change of biotin: 1.077
  Fold Change of caffeic acid: −0.5882
  Fold Change of catechol: 0
  Fold Change of cinnamic acid: 0
  Fold Change of citricanoic/itaconi: 0
  Fold Change of citrulline: 1659
  Fold Change of coumaric acid: 0
  Fold Change of cytidine: −0.9986
  Fold Change of cytosine: 0
  Fold Change of decanoic acid: −0.08716
  Fold Change of diaminopimelic acid: 0
  Fold Change of dihydrofolic acid: 0
  Fold Change of estrone: 0
  Fold Change of farnesol: 0
  Fold Change of folic acid: 0
  Fold Change of fumaric/3m2oxobutan: 0.4423
  Fold Change of gallic acid: 0.1622
  Fold Change of gibberellic: 0
  Fold Change of giutamine/lysine: 0.07919
  Fold Change of glucosamine6PO4: −0.9951
  Fold Change of glutamic/acetylseri: 0.1414
  Fold Change of guanine: 0
  Fold Change of guanosine: 1.131
  Fold Change of histidine: 0
  Fold Change of homogentisic/uric: 0
  Fold Change of hydrocortisone: 0
  Fold Change of hypoxanthine: 0.1655
  Fold Change of indole3pyruvic acid: 0
  Fold Change of inostol/glucos/sorb: −0.5905
  Fold Change of isocitric/citric/qu: 2.549
  Fold Change of jasmonic acid: 0
  Fold Change of kinetin: 0
  Fold Change of lactic acid: −0.02583
  Fold Change of lauric acid: 0.1225
  Fold Change of leucine/isoleucine/: 0.1319
  Fold Change of luteolin: 0
  Fold Change of malic acid: 0.6212
  Fold Change of malonic acid: 0
  Fold Change of menthol*: −0.07013
  Fold Change of methionine: 0
  Fold Change of nopaline: 0.3342
  Fold Change of oleic acid: 0.689
  Fold Change of ornithine: 2.534
  Fold Change of orotic acid: 8380
  Fold Change of palmitic acid: 0.3979
  Fold Change of phenylalanine: −0.1906
  Fold Change of phenylpyruvic acid: 0
  Fold Change of phosphoenolpyruvate: 0
  Fold Change of pinitol: 0
  Fold Change of pipecolic acid: 0.08112
  Fold Change of porphobilinogen: 0
  Fold Change of proline: 0.4603
  Fold Change of pyridoxine: −0.1294
  Fold Change of retinoic acid: 0
  Fold Change of salicylic/HObenzoic: 0
  Fold Change of selenoOLmethionine: 0.8515
  Fold Change of serine: 0.1091
  Fold Change of shikimic acid: 0
  Fold Change of sinapinic acid: 0
  Fold Change of sorbitol/mannitol: 0.2162
  Fold Change of succinic: 0.8663
  Fold Change of sucrose: 0.4493
  Fold Change of sugar-phosphate: −0.1067
  Fold Change of tetradecanoic acid: −0.07723
  Fold Change of threonine/homoserin: 0.1267
  Fold Change of thymine: 0
  Fold Change of tryptophan: 1.142
  Fold Change of tyrosine: 0.0982
  Fold Change of uracil: 1.511
  Fold Change of uridine: 0.1126
  Fold Change of urocanic acid: 0
  Fold Change of valine: 0.1624
  Fold Change of xanthosineDiH2O: 0
  Fold Change of zeatin: 0
pLC
  Fold Change of 4-aminobenzoic acid: 0
  Fold Change of 4-methylcatechol: 0
  Fold Change of 4ambutyrate/dimglyc: 0.01279
  Fold Change of 5hydroxyLtryptophan: 0
  Fold Change of 6benzylaminopurine: 0
  Fold Change of DL-aminoadipic acid: 0.4703
  Fold Change of NacetylDglucosamine: 0
  Fold Change of NacetylLglutamate: 0
  Fold Change of NacetylLornithine: 1.319
  Fold Change of adenine: 0.1153
  Fold Change of alanine/sarcosine: 0.2602
  Fold Change of allantoic acid: 0
  Fold Change of anthranilic acid: 0
  Fold Change of arginine: 0.4662
  Fold Change of argininosuccinate: 0
  Fold Change of asparagine: 0.6344
  Fold Change of aspartic acid: 0.3594
  Fold Change of biotin: 0
  Fold Change of caffeine: 0
  Fold Change of citric acid TME: 0
  Fold Change of citrulline: 1.798
  Fold Change of cytidine: 0
  Fold Change of cytosine: 0
  Fold Change of diaminopimelic acid: 0
  Fold Change of dihydrofolic acid: 0
  Fold Change of dipicolinic acid: 0
  Fold Change of folic acid: 0
  Fold Change of glucosamine: 0
  Fold Change of glucosamine6PO4: 0
  Fold Change of glutamate: 0.4341
  Fold Change of glutathione: −0.03348
  Fold Change of histidine: 0
  Fold Change of hydrocortisone: 0
  Fold Change of hypoxanthine: 0.2057
  Fold Change of itaconic acid dimes: 0
  Fold Change of kinetin: 0
  Fold Change of leucine/isoleucine/: 0.2746
  Fold Change of luteolin: 0
  Fold Change of mannitol: 0.4543
  Fold Change of methionine: 0.3299
  Fold Change of mevalonic lactone: −0.4606
  Fold Change of niacinamide: 0
  Fold Change of nicotinic acid: −0.9989
  Fold Change of nopaline: 0
  Fold Change of ornithine: 0.5049
  Fold Change of phenylalanine: 0.4036
  Fold Change of phosphoenolpyruvate: 0
  Fold Change of pipecolic acid: 0.5237
  Fold Change of progesterone: 0
  Fold Change of proline: 0.6707
  Fold Change of pyridoxine: −0.1684
  Fold Change of selenoDLmethionine: 1.178
  Fold Change of sugar-phosphate: 0
  Fold Change of thiamine: 0
  Fold Change of threonine/homoserin: 0.3145
  Fold Change of thymine: 0
  Fold Change of tryptophan: 0
  Fold Change of uric acid: 308
  Fold Change of urocanic acid: 0
  Fold Change of xanthosine(diH2O): 0
  Fold Change of zeatin: 0

Source: patent publication US20040018500A1, “Methods and systems for analyzing complex biological systems” (priority 2001, published 2004)
